Measurements from publication PMC3725505 (Scientific Reports, 2013).

Biological target: Kelch domain of human Keap1 (residues 321–609) (Homo sapiens, UniProt Q14145)
Test: Isothermal titration calorimetry
Type: binding
Settings: ITC, pH 7; for TΔS (entropy term upon binding) / ΔG (change in Gibbs free energy upon binding) / ΔH (change in enthalpy upon binding): T = 298.15 K, 50 mM sodium phosphate, 100 mM NaCl, 1 mM DTT, Table 1 set; for Kd: Kd to Kelch, 25°C

Sequence of Kelch domain of human Keap1 (residues 321–609) (Q14145 321-609): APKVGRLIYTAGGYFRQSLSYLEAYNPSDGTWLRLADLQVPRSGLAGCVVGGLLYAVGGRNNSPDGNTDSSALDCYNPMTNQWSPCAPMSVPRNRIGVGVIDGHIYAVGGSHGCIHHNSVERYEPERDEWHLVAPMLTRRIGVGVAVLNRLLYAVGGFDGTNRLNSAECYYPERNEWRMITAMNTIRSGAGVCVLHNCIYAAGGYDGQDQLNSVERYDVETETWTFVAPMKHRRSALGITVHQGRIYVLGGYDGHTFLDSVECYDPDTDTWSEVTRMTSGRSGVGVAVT

Ac-ANGNAENEENGEQEADNEVD-NH2 [PTMA iso 1]
TΔS (entropy term upon binding): -8.02 kcal/mol
ΔG (change in Gibbs free energy upon binding): -6.72 ± 0.05 kcal/mol
ΔH (change in enthalpy upon binding): -14.74 ± 0.12 kcal/mol

CSCC[C@H](NC(=O)[C@H](CCC(N)=O)NC(=O)[C@H](CC(C)C)NC(=O)[C@H](CO)NC(=O)[C@H](CCC(N)=O)NC(=O)[C@H](CC(C)C)NC(=O)[C@H](CCC(=O)O)NC(=O)CNC(=O)[C@@H](NC(=O)[C@H](CO)NC(=O)[C@@H]1CCCN1C(=O)[C@H](CC(=O)O)NC(=O)[C@@H](NC(=O)[C@H](CCC(=O)O)NC(=O)[C@H](CCCCN)NC(=O)[C@H](CO)NC(=O)[C@H](CO)NC(=O)[C@H](CC(C)C)NC(C)=O)C(C)C)[C@@H](C)O)C(=O)N1CCC[C@H]1C(=O)N[C@@H](CCC(=O)O)C(N)=O [p62]
TΔS (entropy term upon binding): -10.34 kcal/mol
ΔG (change in Gibbs free energy upon binding): -8.04 ± 0.03 kcal/mol
ΔH (change in enthalpy upon binding): -18.38 ± 0.07 kcal/mol
Kd: > 1000 nM

Ac-ANGNANEENGEQEADNEVD-NH2 [PTMA iso 2]
TΔS (entropy term upon binding): -9.69 kcal/mol
ΔG (change in Gibbs free energy upon binding): -7.60 ± 0.03 kcal/mol
ΔH (change in enthalpy upon binding): -17.29 ± 0.06 kcal/mol

CC[C@H](C)[C@H](NC(=O)[C@@H]1CCCN1C(=O)[C@H](CC(C)C)NC(=O)[C@H](Cc1ccccc1)NC(=O)[C@H](CCC(=O)O)NC(=O)CNC(=O)[C@@H](NC(=O)[C@H](CCC(=O)O)NC(=O)[C@H](CCC(=O)O)NC(=O)[C@H](CC(=O)O)NC(=O)[C@H](CC(C)C)NC(=O)[C@H](CCC(N)=O)NC(=O)[C@H](CC(C)C)NC(=O)[C@H](CCC(N)=O)NC(=O)[C@H](C)NC(=O)[C@H](Cc1ccccc1)NC(C)=O)[C@@H](C)O)C(=O)N[C@@H](CCC(N)=O)C(=O)N1CCC[C@H]1C(=O)N[C@@H](C)C(=O)N[C@@H](CCC(N)=O)C(N)=O [NRF2 site 1]
TΔS (entropy term upon binding): -6.56 kcal/mol
ΔG (change in Gibbs free energy upon binding): -10.40 ± 0.03 kcal/mol
ΔH (change in enthalpy upon binding): -16.96 ± 0.05 kcal/mol

Ac-INVRKRNVESGEEELASKLD-NH2 [PGAM5]
TΔS (entropy term upon binding): -10.05 kcal/mol
ΔG (change in Gibbs free energy upon binding): -9.07 ± 0.03 kcal/mol
ΔH (change in enthalpy upon binding): -19.12 ± 0.06 kcal/mol

Ac-FAQLQLDPETGEFLPIQPAQ-NH2 [NRF2 site 1 E78P]
TΔS (entropy term upon binding): -5.64 kcal/mol
ΔG (change in Gibbs free energy upon binding): -11.12 ± 0.03 kcal/mol
ΔH (change in enthalpy upon binding): -16.76 ± 0.05 kcal/mol

Ac-SLEEPHSPETGEKVVAGEVN-NH2 [WTX]
TΔS (entropy term upon binding): -9.03 kcal/mol
ΔG (change in Gibbs free energy upon binding): -9.01 ± 0.04 kcal/mol
ΔH (change in enthalpy upon binding): -18.04 ± 0.09 kcal/mol
Kd: 100 to 200 nM
